The source of these data is PubChem BioAssay AID1963851 (Molecular Pharmacology Branch, DTP, NCI, 2024).

Values joined by “and” are separate entries in the source; they are usually repeats but may differ in a detail not shown here. Equal values may be shown once.

The assay deals with 188146-221-R-J1-PDC complex spheroid viability. As to the kind of experiment: Anticancer human tumor 188146-221-R-J1-PDC patient-derived colon adenocarcinoma cell line growth inhibition [POLQ]. As to conditions: for viability, T/C: stronger effect = lower value. As for the experimental part: Multicellular complex tumor spheroid response to Polymerase (POL) inhibitors (novobiocin, ART-558, RP6685) in combination with a variety of drugs and investigational agents in selected tumor cell lines
The POL inhibitors (novobiocin, ART-558, and RP6685) were evaluated both individually and in combination with standard of care and investigational anticancer small molecules within a complex spheroid model of solid tumors. . Complex spheroids include a stromal component modeled by human endothelial cells (HUVEC) and fibroblasts modeled by human mesenchymal stem cells (MSCs). The concentration ranges selected for each drug and investigational agent were based upon clinically achievable concentrations if the clinical Cmax of the agent was known.
Compounds. The drugs and investigational agents: novobiocin (NSC847541), ART-558 (NSC835418), RP-6685 (NSC848927), peposertib (NSC802822), ceralasertib (NSC780249), elimusertib (NSC800525), camonsertib (NSC841442), AZD-1390 (NSC803789), olaparib (NSC753686), talazoparib (NSC767125), rucaparib (NSC756644), sotorasib (NSC818433), MRTX-1133 (NSC836407), SN-38 (NSC673596), topotecan (NSC609699), epotoside (NSC141540), doxorubicin (NSC123127), gemcitabine (NSC613327), 5-fluorouracil (NSC19893), paclitaxel (NSC125973), vemurafenib (NSC761431), MSA-2 (NSC828583), SN-011 (NSC837082), adavosertib (NSC754352), prexasertib (NSC758257), carboplatin (NSC241240) and oxaliplatin (NSC266046), were obtained from the National Cancer Institute (NCI) Developmental Therapeutics Program Chemical Repository (21). The FDA-approved anticancer drug set is available from the Developmental Therapeutics Program at https://dtp.cancer.gov/organization/dscb/obtaining/. […] The stock solutions were prepared in dimethyl sulfoxide (DMSO, Sigma-Aldrich, St. Louis, MO, cat. D2650), except for the platinum compounds which were prepared in saline (Quality Biological, Gaithersburg, MD, cat. 114-055-101), at 800-fold the tested concentration and stored at -70 degrees C prior to their use. All drugs and investigational agents were tested over a range starting from a high concentration at or near the clinical Cmax and decreasing in half-log increments. If the clinical Cmax for an agent had not been determined, the highest concentration tested was 10 microM, except for SN-38, which was tested at a high concentration of 1 microM.
Cell Culture. All cells were maintained in an incubator at 37 degrees C and 5% CO2 with 95% humidity. The PDC lines were cultured according to standard operating procedures established by the NCI PDMR (https://pdmr.cancer.gov). Table 3 of the manuscript, lists the cell lines along with the number of the three cell types plated to form the mct-spheroids and media for tumor cell growth. After thawing, all PDC lines, except 997537-175-T-J1-PDC and 415267-285-R-J2-PDC, were cultured in Matrigel-coated flasks prepared with a working solution of 1X Ham's F-12 nutrient mix, without supplementation (Thermo Fisher Scientific, cat. 11765054), 100 U/mL penicillin-streptomycin (Thermo Fisher Scientific, cat. 15140122), and 2.5% Matrigel (Corning Inc., Corning, NY, cat. 354248) for the first three passages. The two PDC lines 997537-175-T-J1-PDC and 415267-285-R-J2-PDC were cultured on uncoated flasks. The 857933-349-R-J2-PDC line was cultured in 6C/Colon 1B media containing advanced DMEM/F-12 (Thermo Fisher Scientific, cat. 12634028), 10 mM HEPES (Thermo Fisher Scientific, cat. 15630080), 1X GlutaMAX supplement (Thermo Fisher Scientific, cat. 35050061), 0.1 mg/mL primocin (InvivoGen, San Diego, CA, cat. ant-pm-2), 10% defined fetal bovine serum, heat inactivated (HyClone Laboratories Inc., Logan, UT, cat. SH30070.03HI), 50% L-WRN conditioned media (ATCC, cat. CRL-3276), 1.25 mM N-Acetyl-L-cysteine (Sigma-Aldrich, cat. A9165), 10 mM nicotinamide (Sigma-Aldrich, cat. N0636), 1X B-27 supplement (Thermo Fisher Scientific, cat. 17504044), 1X N-2 supplement (Thermo Fisher Scientific, cat. […]
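Further: spheroids exposed to compounds for seven days.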

For `C=CCn1c(=O)c2cnc(Nc3ccc(N4CCN(C)CC4)cc3)nc2n1-c1cccc(C(C)(C)O)n1`, the viability, T/C was 96.3% and 101% and 120% (compound 0.00316 µM); 104% and 117% and 103% (compound 0.01 µM); 94.6% and 104% and 95.5% (compound 0.0316 µM); 98.4% and 100% and 113% (compound 0.1 µM); 99% and 117% and 98.4% (compound 0.316 µM); 60.4% and 62.4% and 59% (compound 1 µM). In addition, the IC50 (curve of compound) is more than 1000 nM.
As to `Cc1cccc(N(C)C(=O)C2C(O)CCN2c2nc(C)cc(C(F)(F)F)c2C#N)c1` (centres undefined), the viability, T/C by setting is: (compound 0.1 µM) 102% [middle of 13 runs]; (compound 0.316 µM) 100% [middle of 13 runs]; (compound 1 µM) 105% [middle of 13 runs]; (compound 3.16 µM) 101% [middle of 13 runs]; (compound 10 µM) 97.8% [middle of 13 runs]. Moreover, the IC50 was more than 10000 nM (compound alone, run of 10/31/2023) and more than 10000 nM (compound alone, run of 11/06/2023).
As for `CNCc1ccc(-c2[nH]c3cc(F)cc4c3c2CCNC4=O)cc1`, the viability, T/C (compound 0.0316 µM) was 111% and 108% and 115%; the viability, T/C (compound 0.1 µM) is 108% and 97.9% and 106%; the viability, T/C (compound 0.316 µM) was 102% and 109% and 99.4%; the viability, T/C (compound 1 µM) is 105% and 104% and 103%; the viability, T/C (compound 3.16 µM) was 112% and 105% and 113%; the viability, T/C (compound 10 µM) was 100% and 99.3% and 95.5%. For the setting “curve of compound”, the IC50 was more than 10000 nM.
With `COc1cccc(OCCCN)c1-c1cc(Nc2cnc(C#N)cn2)n[nH]1`, the viability, T/C is 97.7% and 99% and 88.2% (compound 0.00316 µM); 88.1% and 99.5% and 101% (compound 0.01 µM); 42.7% and 75.8% and 72.2% (compound 0.0316 µM); 20.7% and 37.1% and 32.8% (compound 0.1 µM); 12.7% and 16.1% and 16.8% (compound 0.316 µM); 9.17% and 13% (2×) (compound 1 µM). In addition, the IC50 (curve of compound) was 27.2 nM and 68 nM and 61.2 nM.
As for `C#Cc1c(F)ccc2cc(O)cc(-c3ncc4c(N5CC6CCC(C5)N6)nc(OCC56CCCN5CC(F)C6)nc4c3F)c12` (centres undefined), the viability, T/C (compound 0.0316 µM) was 100% and 103% and 99.2%; the viability, T/C (compound 0.1 µM) was 97.1% and 105% and 99.9%; the viability, T/C (compound 0.316 µM) is 90.5% and 81.7% and 89.8%; the viability, T/C (compound 1 µM) is 96.4% and 100% (2×); the viability, T/C (compound 3.16 µM) was 98.2% and 99.9% and 104%; the viability, T/C (compound 10 µM) was 89.1% and 102% and 85.3%. In addition, the IC50 (curve of compound) was more than 10000 nM.
For `CCc1cc2c(N3CCc4c(cc(Cn5ccnc5)cc4-c4cn(C)nc4C(F)(F)F)C3=O)ccnc2c(OC)n1`, the viability, T/C is, setting by setting: (compound 0.0316 µM) 103% and 102% and 97.4%; (compound 0.1 µM) 100% and 84.5% and 101%; (compound 0.316 µM) 100% and 99.4% and 92.2%; (compound 1 µM) 92.7% and 93.4% and 98.2%; (compound 3.16 µM) 69.5% and 74% and 71.6%; (compound 10 µM) 48.1% and 54.2% and 57.5%. The IC50 (curve of compound) is 9010 nM and > 10000 nM.
Turning to `Cn1ncnc1[C@H]1c2n[nH]c(=O)c3cc(F)cc(c23)N[C@@H]1c1ccc(F)cc1` + Cc1cccc(N(C)C(=O)C2C(O)CCN2c2nc(C)cc(C(F)(F)F)c2C#N)c1, the IC50 was more than 100 nM (curve of first compound, second compound 0.0316 µM); more than 100 nM (curve of first compound, second compound 0.1 µM); more than 100 nM (curve of first compound, second compound 0.316 µM); more than 100 nM (curve of first compound, second compound 1 µM); more than 100 nM (curve of first compound, second compound 3.16 µM); more than 100 nM (curve of first compound, second compound 10 µM). Besides, the viability, T/C (second compound 0.0316 µM, first compound 0.000316 µM) was 97.2%; the viability, T/C (second compound 0.0316 µM, first compound 0.001 µM) was 97.4%; the viability, T/C (second compound 0.0316 µM, first compound 0.00316 µM) was 91.8%; the viability, T/C (second compound 0.0316 µM, first compound 0.01 µM) is 98.3%; the viability, T/C (second compound 0.0316 µM, first compound 0.0316 µM) was 99.3%; the viability, T/C (second compound 0.0316 µM, first compound 0.1 µM) is 88%. Also, the viability, T/C by setting is: (second compound 0.1 µM, first compound 0.000316 µM) 106%; (second compound 0.1 µM, first compound 0.001 µM) 107%; (second compound 0.1 µM, first compound 0.00316 µM) 101%; (second compound 0.1 µM, first compound 0.01 µM) 84.8%; (second compound 0.1 µM, first compound 0.0316 µM) 89.9%; (second compound 0.1 µM, first compound 0.1 µM) 103%. Moreover, the viability, T/C runs as follows: (second compound 0.316 µM, first compound 0.000316 µM) 101%; (second compound 0.316 µM, first compound 0.001 µM) 104%; (second compound 0.316 µM, first compound 0.00316 µM) 101%; (second compound 0.316 µM, first compound 0.01 µM) 101%; (second compound 0.316 µM, first compound 0.0316 µM) 90.8%; (second compound 0.316 µM, first compound 0.1 µM) 104%. The viability, T/C is 107% (second compound 1 µM, first compound 0.000316 µM); 99.6% (second compound 1 µM, first compound 0.001 µM); 105% (second compound 1 µM, first compound 0.00316 µM); 102% (second compound 1 µM, first compound 0.01 µM); 89% (second compound 1 µM, first compound 0.0316 µM); 93.5% (second compound 1 µM, first compound 0.1 µM). Further, the viability, T/C is, setting by setting: (second compound 3.16 µM, first compound 0.000316 µM) 100%; (second compound 3.16 µM, first compound 0.001 µM) 105%; (second compound 3.16 µM, first compound 0.00316 µM) 95.4%; (second compound 3.16 µM, first compound 0.01 µM) 90%; (second compound 3.16 µM, first compound 0.0316 µM) 95.4%; (second compound 3.16 µM, first compound 0.1 µM) 94.2%. The viability, T/C runs as follows: (second compound 10 µM, first compound 0.000316 µM) 96.4%; (second compound 10 µM, first compound 0.001 µM) 91.8%; (second compound 10 µM, first compound 0.00316 µM) 90.6%; (second compound 10 µM, first compound 0.01 µM) 87.8%; (second compound 10 µM, first compound 0.0316 µM) 90.8%; (second compound 10 µM, first compound 0.1 µM) 94.6%.

A word on the viability, T/C: it is the result in the treated group divided by that in the control group, in per cent. As a reminder, the IC50 is the point on the concentration scale where inhibition reaches its midpoint.
